Reference: patent US20240210736A1, “MOUSE MYOPIA-INDUCED MODEL AND ENDOPLASMIC RETICULUM STRESS SUPPRESSANT FOR PREVENTING AND SUPPRESSING MYOPIA” (TSUBOTA LABORATORY, INC., priority 2017, published 2024)

How the values were obtained:
[1] = tested on: mouse myopia-induced model; experiment: Mouse myopia-induced model (−30 D minus lens): suppression of myopia induction; conditions: for difference of variation in refractive value between lens-worn eyes and control eyes / difference of variation in axial length of the eye between lens-worn eyes and control eyes: 50 μM in PBS; for difference of variation in refractive value between lens-worn eyes and control eyes: FIG. 8A right graph; for difference of variation in axial length of the eye between lens-worn eyes and control eyes: FIG. 8B right graph; for refractive value variation of lens-worn myopia-induced eyes vs PBS administered group / axial length of the eye variation of lens-worn myopia-induced eyes vs PBS administered group: three weeks; for refractive value variation of lens-worn myopia-induced eyes vs PBS administered group: FIG. 6 left; for axial length of the eye variation of lens-worn myopia-induced eyes vs PBS administered group: FIG. 6 right
Procedure: Specifically, the mouse myopia-induced model is prepared as follows. Because it is easier to induce myopia to a juvenile mouse, it is preferable to mount the minus lens as soon as possible after the weaning. A 3-week-old C57BL6J is used here. The mouse is anesthetized with three types-mixed anesthetic of Domitor (Nippon Zenyaku Kogyo Co., Ltd.), Betorphal (Meiji Seika Pharma Co., Ltd.), and Midazolam (Sandoz K. K.). The skull is then opened with scissors. A post 1 is erected in the skull and fixed with dental cement (Super-Bond, Sun Medical Co., Ltd.). The post is threaded to fix an adjusting instrument described later with a nut.
To induce myopia, −30 diopter (D) minus lens (Rainbow contact, Rainbow Optical Laboratory Co., Ltd.) 2 is mounted on one side, and 0 D lens or only frame 3 is mounted on the other side as a control. A protector 4 having a laterally projected shape is mounted to a frame part in the lower portion of the lens to prevent the mouse from damaging the lens with its forelegs or the like when mounting the lens to the mouse. The protector 4 prevents the mouse from touching the lens, causing no damages on the lens. The protector 4 used here is in the form mounted to the frame part and integrated with it, although it needs not be integrated with the lens as long as the mouse behavior will not damage the lens.
An adjusting instrument 5 is bonded to a frame part in the upper portion of the lens to adjust the width and angle of the mounted lens in response to the growth of the mouse. The adjusting instrument 5 is folded in a dog leg shape. The adjusting instrument 5 includes one side mounted with the lens and the other side provided with a slot 6 for mounting the adjusting instrument 5 to the post 1 erected in the head. Putting the post 1 over the slot 6 and screwing it with a nut 7 can adhere and fix the adjusting instrument 5 to the skin without compressing the periphery of both eyes of the mouse.
An adjustment mechanism including three parts of the post 1, the nut 7, and the adjusting instrument 5 can adjust the width and angle to bring the lens to the mouse eye position in response to the growth of the mouse. Further, because the lens is detachable, it is possible to measure the change over time of the axial length of the eye and the refractive value.
The left eye was worn with only a frame as a control and the right eye was worn with a −30 D lens for three weeks. The refractive value, the axial length of the eye, and the sclera thickness were measured to find the differences between before and after wearing them. The refractive value was measured with a refractometer (Infrared photorefractor for mice, made by Proffesor Schaeffel, University of Tubingen). The axial length of the eye was measured with an SD-OCT (Spectral-Domain Optical Coherence Tomography, Envisu R4310, Bioptigen Inc.). The sclera thickness was measured by obtaining an optical image of a hematoxylin and eosin (HE) stained paraffin piece by an optical microscope (BX53, Olympus Corporation) and then using an imaging software cellSens. The results were analyzed with ANOVA, Turky HSD.
Then, an analysis was conducted to check for suppression of myopia induction by administration of endoplasmic reticulum stress suppressant. […] Note that only phosphate-buffered saline (PBS) was administered to the control group.

mouse eye = experiment: Induction of myopia by eye drop of endoplasmic reticulum stress inducer; format: in vivo, C57BL6J mouse; conditions: single eye drop, right eye, one week after administration, FIG. 7
Procedure: Because the endoplasmic reticulum stress suppressant has a suppression effect on myopia induction as describe above, it is considered that the endoplasmic reticulum stress directly participates in myopia induction. Then, an analysis was conducted to check for induction of myopia by administration of an agent for inducing endoplasmic reticulum stress. The subject was a 3-week-old male C57BL6J mouse (n=12). The right eye of the mouse was administered once by eye drop with 50 μg/ml of tunicamycin (Tm) (Sigma-Aldrich Co. LLC) or 10 μM of thapsigargin (TG) (Wako Pure Chemical Industries, Ltd.), and the left eye was administered once by eye drop with PBS (Veh).

[2] = eye drop once a day, one week, n=3
[3] = 0.2% solution in PBS, eye drop once a day, n=4
[4] = 2% solution in PBS, eye drop once a day, n=4

Cc1cccc(CC(=O)N2CCc3c2ccc(-c2cn(C)c4ncnc(N)c24)c3F)n1 [GSK2656157]
difference of variation in refractive value between lens-worn eyes and control eyes [1, 2]: significant decrease in difference of variation | difference of variation in axial length of the eye between lens-worn eyes and control eyes [1, 2]: significant decrease in difference of variation

Cc1c(O)cccc1C(=O)N[C@@H](CSc1ccccc1)[C@H](O)CN1C[C@H]2CCCC[C@H]2C[C@H]1C(=O)NC(C)(C)C [Nelfinavir]
difference of variation in refractive value between lens-worn eyes and control eyes [1, 2]: significant decrease in difference of variation | difference of variation in axial length of the eye between lens-worn eyes and control eyes [1, 2]: significant decrease in difference of variation

O=S(=O)(N=Cc1c(O)ccc2ccccc12)c1cccs1 [STF-083010]
refractive value variation, lens-worn eye against lens-unworn control eye ([1]; 60 μM in PBS, eye drop once a day, one week, n=3, FIG. 8A): showed significant changes | axial length of the eye variation, lens-worn eye against lens-unworn control eye ([1]; 60 μM in PBS, eye drop once a day, one week, n=3, FIG. 8B): showed significant changes

C[C@H](CCC(=O)NCCS(=O)(=O)O)[C@H]1CC[C@H]2[C@@H]3[C@@H](O)C[C@@H]4C[C@H](O)CC[C@]4(C)[C@H]3CC[C@]12C [tauroursodeoxycholic acid, Tauroursodeoxycholic acid]
changes in the refractive value, −30 D lens-worn eyes vs only frame-worn eyes ([1]; 100 mg/kg once a day intraperitoneal, one week after wearing the lens, n=4, FIG. 5 left): no differences were recognized between both types of eyes | changes in the axial length of the eye of myopia-induced eyes vs PBS administered group ([1]; 100 mg/kg once a day intraperitoneal, one week after wearing the lens, n=4, FIG. 5 right): significant changes were recognized in the axial length of the eye

C/C=C(/C)C(=O)O[C@H]1C(C)=C2[C@H]([C@@H]1OC(=O)CCCCCCC)[C@@](C)(OC(C)=O)C[C@H](OC(=O)CCC)[C@@]1(O)[C@H]2OC(=O)[C@@]1(C)O [thapsigargin]
axial length of the eye variation vs PBS administered eyes (myopia induction) (mouse eye; 10 μM): significant differences were recognized | refractive value variation vs PBS administered eyes (myopia induction) (mouse eye; 10 μM): significant differences were recognized

sodium phenylbutyrate
refractive value variation of lens-worn myopia-induced eyes vs PBS administered group [1, 3]: showed a tendency to suppress changes | axial length of the eye variation of lens-worn myopia-induced eyes vs PBS administered group [1, 3]: showed a tendency to suppress changes | variation in the refractive value, −30 D lens-worn eyes vs only frame-worn eyes ([1]; 200 mg/kg/day intraperitoneal, day 2 to 21 after wearing the lens, measured on day 21, FIG. 4A): no changes were recognized in the refractive value | changes in the axial length of the eye, minus lens-worn eyes vs only frame-worn eyes ([1]; 200 mg/kg/day intraperitoneal, day 2 to 21 after wearing the lens, measured on day 21, FIG. 4B): no difference was recognized in the extension | extension of the normal axial length of the eye associated with the growth ([1]; 200 mg/kg/day intraperitoneal, one week and three weeks after wearing the lens, FIG. 4C): does not affect the extension of the normal axial length of the eye associated with the growth | refractive value variation of lens-worn myopia-induced eyes vs PBS administered group [1, 4]: significant differences were recognized | axial length of the eye variation of lens-worn myopia-induced eyes vs PBS administered group [1, 4]: significant differences were recognized

tunicamycin
axial length of the eye variation vs PBS administered eyes (myopia induction) (mouse eye; 50 μg/ml): significant differences were recognized | refractive value variation vs PBS administered eyes (myopia induction) (mouse eye; 50 μg/ml): significant differences were recognized
